Patent publication US20260265251A1 (priority 2023, published 2026)
Where two headings read alike, the source gives them in different places.

System: SK-MEL-3 cells
Experiment: SK-MEL-3 cell proliferation assay
Type: cell-based
Details: Homo sapiens, read-out: SK-MEL-3 IC50
[1] = SK-MEL3, SK-MEL-3 cells, 72 hours, CellTiter-Glo

For `Cc1ccc(-c2ccc3nc4[nH]c(=O)[nH]c4cc3c2Cl)cc1` [Example 1, 8-chloro-7-(p-tolyl)-1,3-dihydro-2H-imidazo[4,5-b]quinolin-2-one], the IC50 [1] was 0.4 nM.

In the case of `Cc1ccc(-c2ccc3nc4c(cc3c2Cl)CC(=O)N4)cc1` [Example 2, 5-chloro-6-(p-tolyl)-1,3-dihydropyrrolo[2,3-b]quinolin-2-one], the IC50 [1] is reported as 37.9 nM.

`Cc1cc(F)ccc1-c1ccc2nc3[nH]c(=O)[nH]c3cc2c1` [Example 4, 7-(4-fluoro-2-methylphenyl)-1,3-dihydro-2H-imidazo[4,5-b]quinolin-2-one] showed an IC50 [1] of 1.7 nM.

`O=c1[nH]c2cc3cc(-c4ccc(F)cc4C(F)(F)F)ccc3nc2[nH]1` [Example 5, 7-(4-fluoro-2-(trifluoromethylphenyl))-1,3-dihydro-2H-imidazo[4,5-b]quinolin-2-one] gave an IC50 [1] of 2.8 nM.

`COc1cc(F)ccc1-c1ccc2nc3[nH]c(=O)[nH]c3cc2c1` [Example 6, 7-(4-fluoro-2-methoxyphenyl)-1,3-dihydro-2H-imidazo[4,5-b]quinolin-2-one] gave an IC50 [1] of 3.6 nM.

`COc1ccc(-c2ccc3nc4[nH]c(=O)[nH]c4cc3c2)c(Cl)n1` [Example 7, 7-(2-chloro-6-methoxypyridin-3-yl)-1,3-dihydro-2H-imidazo[4,5-b]quinolin-2-one] was tested, and the IC50 [1] was 0.4 nM.

`COc1cc(Cl)c(-c2ccc3nc4[nH]c(=O)[nH]c4cc3c2)cn1` [Example 8, 7-(4-chloro-6-methoxypyridin-3-yl)-1,3-dihydro-2H-imidazo[4,5-b]quinolin-2-one] was tested, and the IC50 [1] was 2.1 nM.

`O=c1[nH]c2cc3cc(-c4ccc(F)cc4)ccc3nc2[nH]1` [Example 9, 7-(4-fluorophenyl)-1,3-dihydro-2H-imidazo[4,5-b]quinolin-2-one] showed an IC50 [1] of 1.7 nM.

Compound `O=c1[nH]c2cc3cc(-c4ncc(F)cc4Cl)ccc3nc2[nH]1` [Example 10, 7-(3-chloro-5-fluoropyridin-2-yl)-1,3-dihydro-2H-imidazo[4,5-b]quinolin-2-one] has an IC50 [1] of 1.8 nM.

In the case of `O=c1[nH]c2cc3cc(-c4cnn(C(F)F)c4)ccc3nc2[nH]1` [Example 11, 7-(1-(difluoromethyl)-1H-pyrazol-4-yl)-1,3-dihydro-2H-imidazo[4,5-b]quinolin-2-one], the IC50 [1] is reported as 0.8 nM.

Compound `O=c1[nH]c2cc3cc(-c4cn(C(F)F)nc4Cl)ccc3nc2[nH]1` [Example 12, 7-(3-chloro-1-(difluoromethyl)-1H-pyrazol-4-yl)-1,3-dihydro-2H-imidazo[4,5-b]quinolin-2-one] has an IC50 [1] of 0.3 nM.

For `O=c1[nH]c2cc3cc(-c4c(Cl)cnn4C(F)F)ccc3nc2[nH]1` [Example 16, 7-(4-chloro-1-(difluoromethyl)-1H-pyrazol-5-yl)-1,3-dihydro-2H-imidazo[4,5-b]quinolin-2-one], the IC50 [1] was 1.6 nM.

`O=c1[nH]c2cc3cc(-c4ccc(Cl)nc4Cl)ccc3nc2[nH]1` [Example 18, 7-(2,6-dichloropyridin-3-yl)-1,3-dihydro-2H-imidazo[4,5-b]quinolin-2-one] gave an IC50 [1] of 0.6 nM.

Work on `Nc1ccc(-c2ccc3nc4[nH]c(=O)[nH]c4cc3c2)c(Cl)n1` [Example 19, 7-(6-amino-2-chloropyridin-3-yl)-1,3-dihydro-2H-imidazo[4,5-b]quinolin-2-one] yielded an IC50 [1] of 1.7 nM.

Compound `O=c1[nH]c2cc3c(nc2[nH]1)CCN(c1ccccc1)C3` [Example 20, 7-phenyl-1,3,5,6,7,8-hexahydro-2H-imidazo[4,5-b][1,6]naphthyridin-2-one] has an IC50 [1] of 4.5 nM.

`Cc1ccc(-c2ccc3nc4[nH]c(=O)[nH]c4cc3c2)c(Cl)c1` [Example 25, 7-(2-chloro-4-methylophenyl)-1,3-dihydro-2H-imidazo[4,5-b]quinolin-2-one] gave an IC50 [1] of 2.9 nM.

Work on `Nc1cc(-c2ccc3nc4[nH]c(=O)[nH]c4cc3c2)ccn1` [Example 26, 7-(2-aminopyridin-4-yl)-1,3-dihydro-2H-imidazo[4,5-b]quinolin-2-one] yielded an IC50 [1] of 74.6 nM.

Work on `O=c1[nH]c2cc3cc(-c4cnn(C(F)(F)F)c4)ccc3nc2[nH]1` [Example 29, 7-(1-(trifluoromethyl)-1H-pyrazol-4-yl)-1,3-dihydro-2H-imidazo[4,5-b]quinolin-2-one] yielded an IC50 [1] of 6.6 nM.

For `O=c1[nH]c2cc3cc(-c4cn(C(F)F)nc4C(F)(F)F)ccc3nc2[nH]1` [Example 31, 7-(1-(difluoromethyl)-3-(trifluoromethyl)-1H-pyrazol-4-yl)-1,3-dihydro-2H-imidazo[4,5-b]quinolin-2-one], the IC50 [1] was 2.5 nM.

`O=c1[nH]c2cc3cc(-c4c(Cl)ncn4C(F)F)ccc3nc2[nH]1` [Example 38, 7-(4-chloro-1-(difluoromethyl)-1H-imidazol-5-yl)-1,3-dihydro-2H-imidazo[4,5-b]quinolin-2-one] was tested, and the IC50 [1] was 4.7 nM.

`O=c1[nH]c2cc3c(nc2[nH]1)CCN(c1ccc(C(F)F)cc1Cl)C3` [Example 46, 7-(2-chloro-4-(difluoromethyl)phenyl)-1,3,5,6,7,8-hexahydro-2H-imidazo[4,5-b][1,6]naphthyridin-2-one] showed an IC50 [1] of 1.2 nM.

In the case of `O=c1[nH]c2cc3c(nc2[nH]1)CCN(c1ccc(Cl)cc1Cl)C3` [Example 47, 7-(2,4-dichlorophenyl)-1,3,5,6,7,8-hexahydro-2H-imidazo[4,5-b][1,6]naphthyridin-2-one], the IC50 [1] is reported as 2.7 nM.

Work on `O=c1[nH]c2cc3c(nc2[nH]1)CCN(c1cccc(F)c1)C3` [Example 49, 7-(3-fluorophenyl)-1,3,5,6,7,8-hexahydro-2H-imidazo[4,5-b][1,6]naphthyridin-2-one] yielded an IC50 [1] of 1.8 nM.

Compound `O=c1[nH]c2cc3c(nc2[nH]1)CCN(c1cn(C(F)F)nc1Cl)C3` [Example 51, 7-(3-chloro-1-(difluoromethyl)-1H-pyrazol-4-yl)-1,3,5,6,7,8-hexahydro-2H-imidazo[4,5-b][1,6]naphthyridin-2-one] has an IC50 [1] of 74.9 nM.

Work on `N#Cc1ccc(N2CCc3nc4[nH]c(=O)[nH]c4cc3C2)c(F)c1` [Example 52, 7-(2-fluoro-4-cyanophenyl)-1,3,5,6,7,8-hexahydro-2H-imidazo[4,5-b][1,6]naphthyridin-2-one] yielded an IC50 [1] of 4.1 nM.

With `N#Cc1ccc(N2CCc3nc4[nH]c(=O)[nH]c4cc3C2)cc1F` [Example 53, 7-(3-fluoro-4-cyanophenyl)-1,3,5,6,7,8-hexahydro-2H-imidazo[4,5-b][1,6]naphthyridin-2-one] the IC50 (SK-MEL3, 72 h) was 9.6 nM.

`O=c1[nH]c2cc3c(nc2[nH]1)CCN(c1ccc(OC(F)(F)F)cc1Cl)C3` [Example 54, 7-(2-chloro-4-(trifluoromethoxy)phenyl)-1,3,5,6,7,8-hexahydro-2H-imidazo[4,5-b][1,6]naphthyridin-2-one] was tested, and the IC50 [1] was 198 nM.

`O=c1[nH]c2cc3c(nc2[nH]1)CCN(c1cccc(OC(F)(F)F)c1)C3` [Example 55, 7-(3-(trifluoromethoxy)phenyl)-1,3,5,6,7,8-hexahydro-2H-imidazo[4,5-b][1,6]naphthyridin-2-one] was tested, and the IC50 [1] was 15.6 nM.

In the case of `N#Cc1cnc(N2CCc3nc4[nH]c(=O)[nH]c4cc3C2)c(Cl)c1` [Example 56, 7-(3-chloro-5-cyanopyridin-2-yl)-1,3,5,6,7,8-hexahydro-2H-imidazo[4,5-b][1,6]naphthyridin-2-one], the IC50 [1] is reported as 10.6 nM.

For `O=c1[nH]c2cc3c(nc2[nH]1)CCN(c1cccc(Cl)c1)C3` [Example 59, 7-(3-chlorophenyl)-1,3,5,6,7,8-hexahydro-2H-imidazo[4,5-b][1,6]naphthyridin-2-one], the IC50 [1] was 2.3 nM.

With `O=c1[nH]c2cc3c(Cl)c(-c4ccccc4)ccc3nc2[nH]1` [Example 65, 8-chloro-7-phenyl-1,3-dihydro-2H-imidazo[4,5-b]quinolin-2-one] the IC50 [1] was 0.8 nM.
